According to patent US4826982A, “Quinolonecarboxylic acid derivatives” (Kyorin Pharmaceutical Co., Ltd., priority 1985, dated 1989):

What was measured:
K. pneumoniae 1-220S = assay: Antibacterial spectrum, MIC; format: cell-based; conditions: Klebsiella pneumoniae, 1220S; 10^6 cells/ml; Gram -; standard strain
From the text: (§1) In vitro antibacterial activity (standard strains)
(§2) Organism (10^6 cells/ml)

B. fragilis 0558 = assay: Antibacterial spectrum, MIC; format: cell-based; conditions: Bacteroides fragilis, 10^6 cells/ml, Gram -, standard strain
From the text: as §1, §2

B. fragilis 25285 = assay: Antibacterial spectrum, MIC; format: cell-based; conditions: Bacteroides fragilis, 10^6 cells/ml, Gram -, standard strain
From the text: as §1, §2

[1] = tested on: Staphylococcus aureus 209 P; assay: Antibacterial spectrum, MIC; format: cell-based; conditions: 10^6 cells/ml, Gram +, standard strain
From the text: as §1, §2

[2] = tested on: S. aureus IID 670 (Terajima); assay: Antibacterial spectrum, MIC; format: cell-based; conditions: Staphylococcus aureus, IID670; 10^6 cells/ml; Gram +; standard strain
From the text: as §1, §2

Shigella sonnei IID 969 = assay: Antibacterial spectrum, MIC; format: cell-based; conditions: IID969, 10^6 cells/ml, Gram -, standard strain
From the text: as §1, §2

B. distasonis 8503 = assay: Antibacterial spectrum, MIC; format: cell-based; conditions: Parabacteroides distasonis, 10^6 cells/ml, Gram -, standard strain
From the text: as §1, §2

[3] = tested on: Escherichia coli NIHJ JC-2; assay: Antibacterial spectrum, MIC; format: cell-based; conditions: NIHJJC2, 10^6 cells/ml, Gram -, standard strain
From the text: as §1, §2

[4] = tested on: Acinetobacter anitratus IID 876; assay: Antibacterial spectrum, MIC; format: cell-based; conditions: Acinetobacter calcoaceticus, IID876; 10^6 cells/ml; Gram -; standard strain
From the text: as §1, §2

S. epidermidis IID 866 = assay: Antibacterial spectrum, MIC; format: cell-based; conditions: Staphylococcus epidermidis, IID866; 10^6 cells/ml; Gram +; standard strain
From the text: as §1, §2

Pst. micros UPI 5464-1 = assay: Antibacterial spectrum, MIC; conditions: Parvimonas micra, UPI54641
[5] = tested on: Pseudomonas aeruginosa V-1; assay: Antibacterial spectrum, MIC; conditions: V1
[6] = tested on: Bacteroides fragilis GM 7000; assay: Antibacterial spectrum, MIC; conditions: GM7000
[7] = tested on: Veillonella parvula KYA 10790; assay: Antibacterial spectrum, MIC; conditions: KYA10790
[8] = tested on: Peptostreptococcus anaerobius KYA 27337; assay: Antibacterial spectrum, MIC; format: cell-based; conditions: KYA27337
[9] = tested on: Propionibacterium acens 11828; assay: Antibacterial spectrum, MIC; format: cell-based
[10] = tested on: Fusobacterium necrophorum S-45; assay: Antibacterial spectrum, MIC; format: cell-based; conditions: S45, 10^6 cells/ml, Gram -, standard strain
From the text: as §1, §2

P. mirabilis IID 994 = assay: Antibacterial spectrum, MIC; format: cell-based; conditions: Proteus mirabilis, IID994; 10^6 cells/ml; Gram -; standard strain
From the text: as §1, §2

[11] = tested on: Proteus vulgaris IFO 3167; assay: Antibacterial spectrum, MIC; format: cell-based; conditions: IFO3167, 10^6 cells/ml, Gram -, standard strain
From the text: as §1, §2

[12] = tested on: Salmonella enteritidis IID 604; assay: Antibacterial spectrum, MIC; format: cell-based; conditions: Salmonella enterica; 10^6 cells/ml; Gram -; standard strain
From the text: as §1, §2

[13] = tested on: Serratia marcescens IID 618; assay: Antibacterial spectrum, MIC; format: cell-based; conditions: IID618, 10^6 cells/ml, Gram -, standard strain
From the text: as §1, §2

[14] = tested on: Streptococcus pyogenes (S-8); assay: Antibacterial spectrum, MIC; format: cell-based; conditions: 10^6 cells/ml, Gram +, standard strain
From the text: as §1, §2

[15] = tested on: Alcaligenes faecalis 0114002; assay: Antibacterial spectrum, MIC; format: cell-based; conditions: 10^6 cells/ml, Gram -, standard strain
From the text: as §1, §2

S. pneumoniae IID 552 = assay: Antibacterial spectrum, MIC; format: cell-based; conditions: Streptococcus pneumoniae, IID552; 10^6 cells/ml; Gram +; standard strain
From the text: as §1, §2

[16] = tested on: Klebsiella pneumoniae KY(GN)6445; assay: Antibacterial spectrum, MIC; format: cell-based; conditions: 10^6 cells/ml, Gram -, standard strain
From the text: as §1, §2

E. coli ATCC l0536 = assay: Antibacterial spectrum, MIC; format: cell-based; conditions: Escherichia coli, ATCCL0536
From the text: as §1, §2

[17] = tested on: Enterobacter cloacae IID 977; assay: Antibacterial spectrum, MIC; format: cell-based; conditions: IID977, 10^6 cells/ml, Gram -, standard strain
From the text: as §1, §2

E. faecalis IID 682 = assay: Antibacterial spectrum, MIC; format: cell-based; conditions: Enterococcus faecalis, IID682; 10^6 cells/ml; Gram +; standard strain
From the text: as §1, §2

[18] = tested on: Citrobacter freundii IID 976; assay: Antibacterial spectrum, MIC; format: cell-based; conditions: IID976, 10^6 cells/ml, Gram -, standard strain
From the text: as §1, §2

[19] = tested on: Eubacterium lentum GAI 5242; assay: microbe, parasite or virus in culture; conditions: Eggerthella lenta, GAI5242
[20] = tested on: Clostridium perfringens KYA 13123; assay: microbe, parasite or virus in culture; conditions: KYA13123
P. aeruginosa IFO 12689 = assay: microbe, parasite or virus in culture; conditions: Pseudomonas aeruginosa, IFO12689
S. pyogenes IID 692 = assay: microbe, parasite or virus in culture; conditions: Streptococcus pyogenes, IID692
F. varium KYA 8501 = assay: Antibacterial spectrum, MIC; format: cell-based; conditions: Fusobacterium varium, KYA8501
[21] = tested on: Peptococcus magnus KY 017; assay: microbe, parasite or virus in culture; conditions: Finegoldia magna, KY017
[22] = tested on: Yersinia enterocolitica IID 981; assay: microbe, parasite or virus in culture; format: cell-based; conditions: IID981
[23] = tested on: Morganella morganii IID 602; assay: Antibacterial spectrum, MIC; format: cell-based; conditions: IID602
C. ramosum = assay: Antibacterial spectrum, MIC; format: cell-based; conditions: Thomasclavelia ramosa
[24] = tested on: B. thetaiotaomicron (0661); assay: Antibacterial spectrum, MIC; format: cell-based; conditions: Bacteroides thetaiotaomicron
[25] = tested on: Bacillus subtilis PCI 219; assay: Antibacterial spectrum, MIC by method recommended by Japan Society of Chemotherapy; format: cell-based; conditions: PCI219, 10^6 cells/ml, Gram +, standard strain
From the text: as §1, §2

Measured: MIC

O=C(O)c1cn(C2CC2)c2cc(N3CCNCC3)c(F)cc2c1=O [CPFX, ciprofloxacin, reference compound]
0.0063 µg/mL: Shigella sonnei IID 969
3.13 µg/mL: B. fragilis 0558
0.2 µg/mL: [1] | [2] | [4] | S. epidermidis IID 866 | Pst. micros UPI 5464-1 | [7]
≤ 0.0063 µg/mL: [3]
0.05 µg/mL: K. pneumoniae 1-220S | [5]
6.25 µg/mL: B. fragilis 25285 | B. distasonis 8503 | [6]

O=C(O)c1cn(C2CC2)c2c(Br)c(N3CCNCC3)c(F)cc2c1=O [Exp. 17, 8-Bromo-1-cyclopropyl-6-fluoro-1,4-dihydro-4-oxo-7-(1-piperazinyl)-3-quinolinecarboxylic acid]
3.13 µg/mL: F. varium KYA 8501
0.1 µg/mL: [1] | [4]
1.56 µg/mL: [8] | B. distasonis 8503 | [24]
0.05 µg/mL: K. pneumoniae 1-220S | [13] | [17] | [22] | [23] | [25]
0.025 µg/mL: P. mirabilis IID 994 | [11] | [12] | Shigella sonnei IID 969 | [16] | E. coli ATCC l0536 | [18]
0.2 µg/mL: [15] | [2] | S. epidermidis IID 866
0.39 µg/mL: [14] | E. faecalis IID 682 | Pst. micros UPI 5464-1 | [19] | [5] | [21] | [7]
6.25 µg/mL: [9] | C. ramosum
0.0125 µg/mL: [3]
0.78 µg/mL: all other assays above
